≈ marks a conversion by molar mass, not a printed value.
Legend:
[1] = tested on: Plasmodium falciparum (D6 clone); experiment: Antimalarial activity in vitro, D6 clone; format: cell-based
[2] = tested on: P. falciparum (chlorine-resistant W2 clone); experiment: Antimalarial activity in vitro, W2 clone; format: cell-based, Plasmodium falciparum
[3] = tested on: Leishmania donovani; experiment: Antileishmanial activity in vitro; format: cell-based
[4] = tested on: Mycobacterium intracellulare; experiment: Activity against M. intracellulare; format: cell-based; conditions: for IC50 M. intracellulare: T5, NA = not active
[5] = tested on: Mycobacterium tuberculosis H37Rv; experiment: In vitro antimycobacterial activity (Microplate Alamar Blue Assay), MIC; format: cell-based; conditions: T4
[6] = tested on: HIV-1LAV; experiment: Anti-HIV-1 activity in PBM cells; format: cell-based, human immunodeficiency virus (HIV-1); conditions: T5
Procedure: Anti-HIV-1 activity was determined in PBM cells as described previously. See, Stock solutions (20 or 40 mM) of the compounds were prepared in sterile DMSO and then diluted to the desired concentration in growth medium. Cells were infected with the prototype HIV-1LAV at a multiplicity of infection of 0.1. Details on the infection of cells and assessment of antiviral effects was described previously. See, Schinazi, R. F.; McMillan, A.; Cannon, D.; Mathis, R.; Lloyd, R. M.; Peck, A.; Sommadossi, J.-P.; Clair, M. S.; Wilson, J.; Furman, P. A.; Painter G.; Choi, W.-B.; Liotta, D. C. Antimicrob. Agents Chemother. 1992, 36, 2423-2431 and Schinazi, R. F.; Sommadossi, J.-P.; Saalmann, V.; Cannon, D. L.; Xie, M.-Y.; Hart, G. C.; Smith, G. A.; Hahn, E. F. Antimicrob. Agents Chemother. 1990, 34, 1061-1067.

[7] = tested on: Cryptococcus neoformans; experiment: Antifungal activity against Cryptococcus neoformans; format: cell-based; conditions: T5; NA = not active
[8] = tested on: Staphylococcus aureus; experiment: Antibacterial activity against S. aureus; format: cell-based; conditions: T5; NA = not active
[9] = tested on: methicillin-resistant Staphylococcus aureus; experiment: Antibacterial activity against MRS; format: cell-based; conditions: T5; NA = not active

Compound: 12-O-methylmanzamine-A
- Plasmodium falciparum (D6 clone) IC 50 ([1]; T7): 1.9 µg/mL
- P. falciparum (chlorine-resistant W2 clone) IC 50 ([2]; T7): 1 µg/mL
- Leishmania donovani IC 50 ([3]; T7): 6.5 µg/mL
- Leishmania donovani IC 90 ([3]; T7): 16 µg/mL
- M. intracellulare IC50 ([4]; T7, first value of a cell '2.0/5.0'): 2.0 µg/mL
- M. intracellulare, second value of the cell (presumably MIC) ([4]; T7, value after the slash under head IC50): 5.0 µg/mL

Compound: Oc1cccc2c1[nH]c1c(C3=C[C@@]4(O)CC/C=C\CCCCN5CCC3[C@]3(CC6/C=C\CCCCN6[C@H]34)C5)nccc12 (single isomer, unassigned; (+)) [(+)-8-Hydroxymanzamine A]
- Mycobacterium Tuberculosis (H37Rv) MIC [5]: 0.91 µg/mL
- EC50 [6]: 590 nM
- Antifungal IC50 C. neoformans [7]: 3.0 µg/mL
- Plasmodium falciparum (D6 clone) IC 50 ([1]; T4, NA = not active): 0.006 µg/mL
- P. falciparum (chlorine-resistant W2 clone) IC 50 ([2]; T4, NA = not active): 0.008 µg/mL
- Leishmania donovani IC 50 ([3]; T4): 6.2 µg/mL
- Leishmania donovani IC 90 ([3]; T4): 11 µg/mL
- Antibacterial IC50 S. aureus [8]: 0.9 µg/mL
- Antibacterial IC50 MRS [9]: 4.0 µg/mL
- IC50 M. intracellulare [4]: 1.0 µg/mL (≈ 1.77 µM)

Compound: O[C@]12C=C(c3nccc4c3[nH]c3ccccc34)C3CCN(CCCC/C=C\CC1)C[C@@]31C[C@]34CC[C@H](CCCN3[C@H]12)O4 (stereo partly shown) [6-Deoxymanzamine X]
- Mycobacterium Tuberculosis (H37Rv) MIC [5]: 1.77 µg/mL
- EC50 [6]: 1600 nM
- Antifungal IC50 C. neoformans [7]: 2.0 µg/mL
- Plasmodium falciparum (D6 clone) IC 50 ([1]; T4, NA = not active): 1.3 µg/mL
- P. falciparum (chlorine-resistant W2 clone) IC 50 ([2]; T4, NA = not active): 1.4 µg/mL
- Leishmania donovani IC 50 ([3]; T4): 3.2 µg/mL
- Leishmania donovani IC 90 ([3]; T4): 7.5 µg/mL
- Antibacterial IC50 S. aureus [8]: 1.5 µg/mL
- Antibacterial IC50 MRS [9]: 1.5 µg/mL
- IC50 M. intracellulare [4]: 6.25 µg/mL (≈ 11.1 µM)

Compound: O=C1CCCN2[C@@H](CC1)C[C@]13CN4CCCC/C=C\CC[C@](O)(C=C(c5nccc6c5[nH]c5ccc(O)cc56)[C@@H]1CC4)[C@H]23 [6-Hydroxymanzamine E]
- Mycobacterium Tuberculosis (H37Rv) MIC [5]: 0.4 µg/mL
- Antifungal IC50 C. neoformans [7]: 5.5 µg/mL
- Plasmodium falciparum (D6 clone) IC 50 ([1]; T4, NA = not active): 0.78 µg/mL
- P. falciparum (chlorine-resistant W2 clone) IC 50 ([2]; T4, NA = not active): 0.87 µg/mL
- Leishmania donovani IC 50 ([3]; T4): 2.5 µg/mL
- Leishmania donovani IC 90 ([3]; T4): 4.3 µg/mL
- IC50 M. intracellulare [4]: 3.5 µg/mL (≈ 6.03 µM)

Compound: O=C1CCCN2C3C45C=C(c6nccc7c6[nH]c6ccccc67)C6CCN(CCCC/C=C\CC4)CC63C[C@@]2(CC1)O5 (stereo partly shown) [12,34-Oxamanzamine E]
- EC50 [6]: 17500 nM

Compound: CCCCOC12C=C(c3nccc4c3[nH]c3ccccc34)C3CCN(CCCCC=CCC1)CC31CC3C=CCCCCN3C21 (stereo not shown) [12-O-butylmanzamine-A]
- Leishmania donovani IC 50 ([3]; T7): 4.7 µg/mL
- Leishmania donovani IC 90 ([3]; T7): 9.1 µg/mL

Compound: CCOC12C=C(c3nccc4c3[nH]c3ccccc34)C3CCN(CCCCC=CCC1)CC31CC3C=CCCCCN3C21 (stereo not shown) [12-O-ethylmanzamine-A]
- Leishmania donovani IC 50 ([3]; T7): 2.8 µg/mL
- Leishmania donovani IC 90 ([3]; T7): 8.2 µg/mL

Compound: CC(C)COC12C=C(c3nccc4c3[nH]c3ccccc34)C3CCN(CCCCC=CCC1)CC31CC3C=CCCCCN3C21 (stereo not shown) [12-O-isobutylmanzamine-A]
- Leishmania donovani IC 50 ([3]; T7): 0.98 µg/mL
- Leishmania donovani IC 90 ([3]; T7): 2.6 µg/mL

Compound: CCCOC12C=C(c3nccc4c3[nH]c3ccccc34)C3CCN(CCCCC=CCC1)CC31CC3C=CCCCCN3C21 (stereo not shown) [12-O-propylmanzamine-A]
- Leishmania donovani IC 50 ([3]; T7): 4.5 µg/mL
- Leishmania donovani IC 90 ([3]; T7): 8.7 µg/mL

Compound: COc1ccc(OC)c(NC2CCCN3C(CC2)C[C@]24CN5CCCC/C=C\CC[C@](O)(C=C(c6nccc7c6[nH]c6c(O)cccc67)C2CC5)[C@H]34)c1 (stereo partly shown) [33-(2,5-dimethoxyaniline)-manzamine-F]
- Plasmodium falciparum (D6 clone) IC 50 ([1]; T8, NA not defined): 1.7 µg/mL
- P. falciparum (chlorine-resistant W2 clone) IC 50 ([2]; T8): 2.6 µg/mL

Compound: Oc1cccc2c1[nH]c1c(C3=C[C@@]4(O)CC/C=C\CCCCN5CCC3[C@]3(CC6CCC(NCc7ccc(Cl)cc7)CCCN6[C@H]34)C5)nccc12 (stereo partly shown) [33-(p-chlorobenzylamino)-manzamine-F]
- Plasmodium falciparum (D6 clone) IC 50 ([1]; T8, NA not defined): 0.68 µg/mL
- P. falciparum (chlorine-resistant W2 clone) IC 50 ([2]; T8): 1.3 µg/mL

Reference: patent publication US20050085554A1, “Methods of treating disease through the administration of a manzamine analog or derivative” (priority 2003, published 2005)
